Data: ChEMBL document CHEMBL3886657, “Imidazopyridin-2-one derivatives” (2016)
pEC50: −log10 of the molar value.

The compounds below were run against Metabotropic glutamate receptor 2 (Homo sapiens, UniProt Q14416) (assay: [35S]-GTPγS Assay: The stimulation of [35S]-GTPγS binding is a common functional assay to monitor Gαi-coupled receptor in native and recombinant receptor membrane preparation. Membrane from cells stably expressing hmGlu2 CHO-K1 (50 μg) are incubated in a 96 well plate for 1 hour in the presence of GTPγS35 (0.05 nM), GDP (5 μM) and compounds. The reaction is stopped by rapid filtration over Unifilter GF/B plate (Packard, Bioscience, Meriden Conn.) using a 96-well cell harvester (Brandel Gaithersburg, Md.). The filter plates are counted using Topcount counter (Packard, Bioscience, Meriden Conn., USA). When compounds are evaluated as potentiators they are tested in the presence of glutamate (1 μM).).
Sequence of Metabotropic glutamate receptor 2 (Q14416 whole entry): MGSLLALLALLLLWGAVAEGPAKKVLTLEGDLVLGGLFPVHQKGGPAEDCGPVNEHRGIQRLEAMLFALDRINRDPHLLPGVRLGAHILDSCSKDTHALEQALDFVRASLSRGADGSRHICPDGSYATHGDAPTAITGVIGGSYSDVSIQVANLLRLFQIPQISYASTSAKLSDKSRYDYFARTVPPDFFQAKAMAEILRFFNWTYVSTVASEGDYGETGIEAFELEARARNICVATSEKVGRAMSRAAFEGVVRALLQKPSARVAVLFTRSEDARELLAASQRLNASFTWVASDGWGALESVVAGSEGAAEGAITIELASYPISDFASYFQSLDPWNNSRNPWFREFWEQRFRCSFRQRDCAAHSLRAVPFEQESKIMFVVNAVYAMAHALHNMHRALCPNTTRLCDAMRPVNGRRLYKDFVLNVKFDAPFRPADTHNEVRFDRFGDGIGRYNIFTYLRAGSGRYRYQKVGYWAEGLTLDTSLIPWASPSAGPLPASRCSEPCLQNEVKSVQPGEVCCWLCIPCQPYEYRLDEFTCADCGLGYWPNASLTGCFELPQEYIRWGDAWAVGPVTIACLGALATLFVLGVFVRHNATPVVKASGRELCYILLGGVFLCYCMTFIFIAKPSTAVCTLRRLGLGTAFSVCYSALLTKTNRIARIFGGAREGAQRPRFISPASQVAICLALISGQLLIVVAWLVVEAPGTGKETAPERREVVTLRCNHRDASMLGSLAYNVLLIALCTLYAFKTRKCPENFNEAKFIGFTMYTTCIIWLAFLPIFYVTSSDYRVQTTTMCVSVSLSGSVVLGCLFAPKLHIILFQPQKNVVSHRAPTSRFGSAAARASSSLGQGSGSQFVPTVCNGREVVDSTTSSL

pEC50	SMILES
6.67	Cn1c(=O)n(CC(C)(C)C)c2ccc(C3=CC4CCC3CN4C(=O)C3CC3)nc21 (configuration not stated)
7.75	Cn1c(=O)n(CC(C)(C)C)c2ccc(C3=CC4CCC3CN4C(=O)c3ncco3)nc21 (configuration not stated)
7.57	Cn1c(=O)n(CC2CC2(F)F)c2ccc(C3=CC4CCC3CN4C(=O)c3ccon3)nc21 (configuration not stated)
7.39	CC1C(c2ccc3c(n2)N(C)S(=O)(=O)N3CC2CC2(F)F)C1C(C)(C)O (configuration not stated)
7.16	Cn1c(=O)n(CC(C)(C)C)c2ccc(C3=CC4CCC3CN4C(=O)c3csnn3)nc21 (configuration not stated)
5.55	Cn1c(=O)n(CC(C)(C)C)c2ccc(C3=CC4CN(C(=O)CO)CC4C3)nc21 (configuration not stated)
6.61	Cn1c(=O)n(CC2CC2(F)F)c2ccc(C3=CC4CN(C(=O)c5ncco5)CC4C3)nc21 (configuration not stated)
7.26	Cn1c(=O)n(CC(C)(C)C)c2ccc(C3=CC4CN(C(=O)c5ncco5)CC4C3)nc21 (configuration not stated)
6.94	Cn1c(=O)n(CC(C)(C)C)c2ccc(C3=CC4CCC3CN4C(=O)Cn3cncn3)nc21 (configuration not stated)
7.05	CN1c2nc(C3=CC4CN(C(=O)C(C)(C)O)CC4C3)ccc2N(CC2CC2(F)F)S1(=O)=O (configuration not stated)
7.29	Cn1c(=O)n(CC(C)(C)C)c2ccc(C3=CC4CN(C(=O)C5(O)CCC5)CC4C3)nc21 (configuration not stated)
6.52	Cn1c(=O)n(CC(C)(C)C)c2ccc(C3=CC4CCC3CN4C(=O)c3cccnc3)nc21 (configuration not stated)
